Laboratory results as given in patent publication US12053476B2, “Compounds, compositions and methods for cancer patient stratification and cancer treatment” (BAYER PHARMA AKTIENGESELLSCHAFT, priority 2016, dated 2024).

Legend:
[1] = In vitro metabolic stability in cryopreserved human hepatocytes; format: in vitro ADME; details: 1 μM test compound
Protocol: Investigation of In Vitro Metabolic Stability in Cryopreserved Human Hepatocytes (Including Calculation of Hepatic In Vivo Blood Clearance (CL) and Maximal Oral Bioavailability (Fmax))
Cryopreserved Hepatocytes (e.g. purchased from Celsis InVitroTechnologies) were briefly thawed, washed with 45 mL pre-warmed in in vitro GRO HT medium and centrifuged for 5 min at 50×g. The cell pellet was resuspended in 5 ml of Krebs-Henseleit […] (KHB). Cell viability was determined by trypan blue exclusion.
For the metabolic stability assay liver cells were distributed in WME containing 5% FCS to glass vials at a density of 1.0×10^6 vital cells/ml. The test compound was added to a final concentration of 1 μM. During incubation, the hepatocyte suspensions were continuously shaken at 580 rpm and aliquots were taken at 2, 8, 16, 30, 45 and 90 min, to which equal volumes of cold methanol were immediately added. Samples were frozen at −20° C. over night, after subsequently centrifuged for 15 minutes at 3000 rpm and the supernatant was analyzed with an Agilent 1290 HPLC-system with LCMS/MS detection.
The half-life of a test compound was determined from the concentration-time plot. From the half-life the intrinsic clearances were calculated. […] The hepatic in vivo blood clearance (CL) and the maximal oral bioavailability (Fmax) was calculated.

A549 = assay: Cell proliferation measurement (Cell Titer Glo, 72 h); format: cell-based; details: Homo sapiens, A549, lung adenocarcinoma
Protocol: (§1) The antiproliferative activity of the compounds of the general formula (I) was examined in vitro in human cancer cells. For this purpose, 1000 cells were plated in 384-well plates with appropriate growth medium and incubated at 37° C. overnight. After 24 h, cells on one plate (0 h plate) were treated with 30 μl/cavity of CTG solution (Promega Cell Titer Glo (catalogue #G755B and G756B)) and incubated at room temperature for 10 min, and luminescence was measured by means of a VICTOR V (Perkin Elmer), in order to determine cell viability on commencement of treatment. The cells on the test plate were treated with the compounds of the general formula (I) as and incubated at 37° C. for 72 h. The compounds were added to the cells by means of an HP D300 digital dispenser in a 10-step 2,5-fold dilution series. As control, the cells were treated with vehicle (DMSO at 0.3% final concentration). After 72 h, the cells were treated with 30 μl/cavity of CTG solution (Promega Cell Titer Glo (catalogue #G755B and G756B)) and incubated at room temperature for 10 min, and luminescence was measured by means of a VICTOR V (Perkin Elmer), in order to determine cell viability at the end of treatment. The percentage effect on cell growth and the IC50 derived therefrom were determined for each test substance using the values from the 0 h plate (=maximum inhibition) and the DMSO control (=minimum inhibition). The IC50 values were calculated using a 4-parameter fit.

HeLa = assay: as above; format: cell-based; details: Homo sapiens, cervical cancer
Protocol: as §1

SKMEL3 = assay: as above; format: cell-based; details: Homo sapiens, SK-MEL3, SKMEL3, melanoma
Protocol: as §1

HeLa cells [2] = assay: Compound sensitivity testing in cell lines (cell viability, 48 h); format: cell-based, human; details: 48 h
Protocol: (§2) 1500 NCI-H1734 or 1000 A549 cells were plated in a 384-well plate in 40 μl of RPMI supplemented with 10% Fetal Bovine Serum and 1% Pen/Strep. 24 hours after plating, a compound-library of 1924 small molecules was added at a concentration of 10 μM. Staurosporine was used a positive control for cytotoxicity at a concentration of 10 μM, and DMSO was used a negative control at a concentration of 1%. All compounds were incubated for 48 hours with indicated small molecules. After 48 hours, 384-well plates were removed from the incubator and allowed to cool to room temperature for 20 minutes. Cell viability was assessed by adding 40 μl of a 25% CELLTITERGLO® (Promega) in PBS with a THERMO COMBI™ or multichannel-pipette and incubated for 10 minutes. The luminescence signal was read using a Perkin-Elmer EnVision. Viability percentage was calculated by normalizing to DMSO controls.
1000 HeLa (DMEM), 1000 A549 (RPMI), 500 MCF-7 (DMEM), 4000 PC3 (F12-K), 1000 NCI-H2122 (RPMI) or 1500 NCI-H1563 (RPMI) cells were plated in a 384-well plate in 40 μl of corresponding growth media supplemented with 10% Fetal Bovine Serum. 24 hours after plating, indicated compounds were added at indicated concentrations and incubated for 48 hours. Cell viability was assessed as described in Compound library screening in NCI-H1734 and A549 cell lines.

human full length PDE3A = target: T1, human full length PDE3A (Homo sapiens, UniProt Q14432); assay: PDE3A enzyme inhibition (3H-cAMP Scintillation Proximity Assay); format: biochemical; details: Sf9 cell extract, 60 min
T1 construct: Sf9 cells overexpressing human full length PDE3A (SB Drug Discovery, UK); purchased SB Drug Discovery, UK; host or cells: Sf9
T1 sequence (Q14432 whole entry): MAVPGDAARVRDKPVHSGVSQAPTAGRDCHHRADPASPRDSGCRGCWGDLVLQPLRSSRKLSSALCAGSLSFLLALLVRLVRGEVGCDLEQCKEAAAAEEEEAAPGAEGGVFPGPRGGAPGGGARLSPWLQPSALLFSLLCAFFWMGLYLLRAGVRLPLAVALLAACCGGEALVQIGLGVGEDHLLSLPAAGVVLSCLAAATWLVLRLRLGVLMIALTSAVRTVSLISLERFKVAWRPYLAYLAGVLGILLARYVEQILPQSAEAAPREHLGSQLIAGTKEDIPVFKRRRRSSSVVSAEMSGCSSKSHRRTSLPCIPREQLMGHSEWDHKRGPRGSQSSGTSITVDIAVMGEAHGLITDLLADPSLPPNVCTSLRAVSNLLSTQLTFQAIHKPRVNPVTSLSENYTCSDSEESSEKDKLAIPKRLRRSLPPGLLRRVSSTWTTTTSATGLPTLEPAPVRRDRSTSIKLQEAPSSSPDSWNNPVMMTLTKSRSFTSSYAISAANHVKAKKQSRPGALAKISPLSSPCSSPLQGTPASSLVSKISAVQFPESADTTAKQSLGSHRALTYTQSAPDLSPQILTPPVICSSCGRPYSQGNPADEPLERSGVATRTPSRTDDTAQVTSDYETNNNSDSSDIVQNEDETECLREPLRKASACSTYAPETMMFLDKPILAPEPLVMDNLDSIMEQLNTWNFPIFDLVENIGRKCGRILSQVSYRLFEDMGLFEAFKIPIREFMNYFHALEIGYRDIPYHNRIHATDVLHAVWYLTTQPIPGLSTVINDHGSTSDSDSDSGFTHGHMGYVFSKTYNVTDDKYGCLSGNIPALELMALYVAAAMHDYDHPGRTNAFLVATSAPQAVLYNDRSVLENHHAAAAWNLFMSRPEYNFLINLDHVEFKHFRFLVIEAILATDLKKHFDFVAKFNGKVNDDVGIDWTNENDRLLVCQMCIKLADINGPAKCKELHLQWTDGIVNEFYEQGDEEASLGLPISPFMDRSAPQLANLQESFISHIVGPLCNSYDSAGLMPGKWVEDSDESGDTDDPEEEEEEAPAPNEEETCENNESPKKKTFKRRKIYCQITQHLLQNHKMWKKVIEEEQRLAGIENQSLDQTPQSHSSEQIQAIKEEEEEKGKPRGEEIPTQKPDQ
Protocol: The commercially available ^3H-cAMP Scintillation Proximity Assay (SPA, Perkin Elmer) system was used for enzyme inhibition studies. For the determination of the in vitro effect of test substances on the PDE3A reactions 2 μl of the respective test compound solution in DMSO (serial dilutions) were placed in wells of microtiter plates (Isoplate-96/200W; Perkin Elmer). 50 μl of a dilution of PDE3A cell extract from Sf9 cells overexpressing human full length PDE3A (SB Drug Discovery, UK) in buffer A (50 mM Tris/HCl pH 7.5, 8.3 mM MgCl2, 1.7 mM EDTA, 0.2% BSA) was added. The dilution of the PDE3A cell extract was chosen such that the reaction kinetics was linear and less than 70% of the substrate was consumed (typical dilution 1:5000). The reaction was started by addition of 50 μl (0.025 μCi) of 1:2000 in buffer A w/o BSA diluted substrate [8-^3H] adenosine 3′, 5′-cyclic phosphate (1 μCi/μl; Perkin Elmer). After incubation at room temperature for 60 min, the reaction was stopped by addition of 25 μl of a suspension containing 18 mg/ml yttrium scintillation proximity beads (Perkin Elmer) in water. The microtiter plates were sealed and measured in a Microbeta scintillation counter (PerkinElmer Wallac). IC50 values were determined from sigmoidal curves by plotting percentage PDE3A activity vs log compound concentration.

PDE3B = target: T2, PDE3B (Homo sapiens, UniProt Q13370); assay: PDE3B enzyme inhibition (reported with the 3H-cAMP SPA method); format: biochemical
T2 construct: Caliper (ran the assay)
T2 sequence (Q13370 whole entry, species assumed): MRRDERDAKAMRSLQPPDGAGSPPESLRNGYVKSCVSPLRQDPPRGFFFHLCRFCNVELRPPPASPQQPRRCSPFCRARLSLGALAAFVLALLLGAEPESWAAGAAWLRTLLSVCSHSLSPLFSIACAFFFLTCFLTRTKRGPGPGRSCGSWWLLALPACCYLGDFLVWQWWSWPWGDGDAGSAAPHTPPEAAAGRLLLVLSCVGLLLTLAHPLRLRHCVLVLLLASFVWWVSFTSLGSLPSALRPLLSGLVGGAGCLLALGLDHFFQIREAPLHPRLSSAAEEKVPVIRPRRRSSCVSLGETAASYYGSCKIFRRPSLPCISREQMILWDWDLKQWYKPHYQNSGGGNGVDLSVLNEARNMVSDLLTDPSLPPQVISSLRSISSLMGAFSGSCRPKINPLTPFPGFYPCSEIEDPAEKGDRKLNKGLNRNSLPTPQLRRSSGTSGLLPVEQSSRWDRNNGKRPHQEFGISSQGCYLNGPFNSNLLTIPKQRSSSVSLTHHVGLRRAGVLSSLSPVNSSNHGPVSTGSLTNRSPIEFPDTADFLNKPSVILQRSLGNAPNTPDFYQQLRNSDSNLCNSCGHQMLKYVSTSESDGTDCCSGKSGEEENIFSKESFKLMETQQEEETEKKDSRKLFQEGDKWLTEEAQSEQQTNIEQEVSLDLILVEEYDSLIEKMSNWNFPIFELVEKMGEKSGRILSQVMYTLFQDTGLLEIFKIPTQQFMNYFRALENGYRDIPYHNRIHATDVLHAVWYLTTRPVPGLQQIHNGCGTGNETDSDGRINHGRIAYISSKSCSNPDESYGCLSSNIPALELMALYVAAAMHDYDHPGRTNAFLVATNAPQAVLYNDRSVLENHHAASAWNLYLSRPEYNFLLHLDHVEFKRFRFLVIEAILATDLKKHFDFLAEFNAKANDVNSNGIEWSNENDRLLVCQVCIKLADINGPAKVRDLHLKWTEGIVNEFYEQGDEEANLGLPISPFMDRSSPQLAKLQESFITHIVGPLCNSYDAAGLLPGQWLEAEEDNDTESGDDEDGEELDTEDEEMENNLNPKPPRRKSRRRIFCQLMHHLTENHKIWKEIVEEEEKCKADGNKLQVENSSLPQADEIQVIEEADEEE

PDE3A and SLFN12 complex = target: T3, PDE3A and SLFN12 complex (Homo sapiens, UniProt Q14432); assay: DNMDP-induced PDE3A protein interactions by immunoprecipitation and immunoblotting; format: cell-based; details: HeLa cells, 10 μM, 4 hours
T3 construct: Immunoprecipitation of endogenous PDE3A in HeLa cells treated with DNMDP; host or cells: HeLa
T3 sequence (Q14432 whole entry): as the sequence (Q14432 whole entry) above
T3 sequence (Q8IYM2 whole entry partner): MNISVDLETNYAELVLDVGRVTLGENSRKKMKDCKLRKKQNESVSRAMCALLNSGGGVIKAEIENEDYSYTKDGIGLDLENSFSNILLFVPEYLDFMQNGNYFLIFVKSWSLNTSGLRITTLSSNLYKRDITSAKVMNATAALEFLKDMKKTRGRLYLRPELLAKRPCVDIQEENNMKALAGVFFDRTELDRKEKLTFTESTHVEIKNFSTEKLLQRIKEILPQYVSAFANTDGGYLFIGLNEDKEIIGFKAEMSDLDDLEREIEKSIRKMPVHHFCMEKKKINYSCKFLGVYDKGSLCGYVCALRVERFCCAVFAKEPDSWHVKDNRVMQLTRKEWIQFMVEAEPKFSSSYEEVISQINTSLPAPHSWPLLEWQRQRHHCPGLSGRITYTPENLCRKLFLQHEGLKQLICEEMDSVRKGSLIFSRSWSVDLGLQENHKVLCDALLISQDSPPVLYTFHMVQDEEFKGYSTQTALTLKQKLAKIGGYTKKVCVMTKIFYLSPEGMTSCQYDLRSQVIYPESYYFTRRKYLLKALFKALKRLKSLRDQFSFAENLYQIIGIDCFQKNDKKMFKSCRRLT
Excerpt: Binding of DNMDP altered the composition of interacting proteins that were co-immunoprecipitated with PDE3A. […] These proteins specifically interacted with PDE3A in the presence of DNMDP, and were not observed in the trequinsin treated control, whereas a known PDE3B interactor, abhydrolase domain-containing protein 15 (ABHD15, Chavez et al., Biochem. Biophys. Res. Commun. 342, 1218-1222, 2006), was enriched in the immunoprecipitate from trequinsin-treated cells (FIG. 13C and FIG. 14C). The interaction promoted by DNMDP between PDE3A and both SIRT7 and SLFN12 was validated with affinity reagents. Immunoprecipitation of endogenous PDE3A in HeLa cells treated with DNMDP, but not DMSO or trequinsin, enhanced complex formation of ectopically expressed V5-tagged SIRT7 and SLFN12 with PDE3A, as evidenced by coimmunoprecipitation (FIG. 19). […] Without being bound to theory, PDE3A/SLFN12 complex formation correlated with cell killing (FIGS. 21A-21C).
HeLa cells were transfected with ORF overexpression constructs expressing V5-tagged SIRT7, V5-tagged SLFN12, or V5-tagged GFP. ORF expression constructs were obtained from the TRC (clone IDs: TRCN0000468231, TRCN0000476272, ccsbBroad304_99997). At 72 hours post transfection, cells were treated with 10 μM DNMDP or trequinsin for 4 hours followed by lysis using the ModRipa lysis buffer and immunoprecipitation of PDE3A. […]

NCI-H1734 = assay: Compound library screening in NCI-H1734 and A549 cell lines; format: cell-based, human; details: NCI-H1734 versus A549, 48 h
Protocol: To identify anti-cancer compounds with cell-selective cytotoxic activity, an unbiased chemical screen was performed in two lung adenocarcinoma cell lines, A549 and NCI-H1734, both of which harbor oncogenic KRAS mutations and truncating STK11 mutations, and which were TP53 wild type and mutant (R273L), respectively. 1,924 compounds were screened from the Molecular Libraries Small-Molecule Repository validation set in the A549 and NCI-H1734 cell lines at a single concentration of 10 μM in 384-well format in duplicate. As a proxy for cellular viability, ATP content was measured after 48 hours of compound treatment.
as §2, with “After 48 hours, 384-well plates were removed from the incubator and allowed to cool to room temperature for 20 minutes.” left out

PDE3A(677-1141) = target: T4, PDE3A(677-1141) (Homo sapiens, UniProt Q14432); assay: Differential scanning fluorimetry (DSF) binding to purified PDE3A catalytic domain; details: 5 μM PDE3A, 100 μM compound
T4 construct: purified PDE3A catalytic domain, PDE3A(677-1141)
T4 sequence (Q14432 677-1141): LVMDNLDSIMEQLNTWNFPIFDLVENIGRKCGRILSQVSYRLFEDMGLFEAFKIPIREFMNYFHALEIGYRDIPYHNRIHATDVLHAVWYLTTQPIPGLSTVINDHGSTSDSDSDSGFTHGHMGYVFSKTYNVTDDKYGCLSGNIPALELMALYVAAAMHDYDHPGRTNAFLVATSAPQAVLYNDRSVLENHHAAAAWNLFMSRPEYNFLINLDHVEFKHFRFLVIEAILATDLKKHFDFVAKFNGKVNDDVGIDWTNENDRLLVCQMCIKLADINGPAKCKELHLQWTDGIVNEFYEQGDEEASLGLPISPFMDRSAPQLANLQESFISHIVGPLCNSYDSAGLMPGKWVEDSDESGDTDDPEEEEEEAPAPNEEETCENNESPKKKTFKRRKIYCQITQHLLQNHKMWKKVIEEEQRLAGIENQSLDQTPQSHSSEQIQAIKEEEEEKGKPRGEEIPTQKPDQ
Protocol: Binding buffer: 20 mM Hepes pH 7.4, 100 μM TCEP, 1 mM MgCl2, 150 mM NaCl.

HeLa cells [3] = assay: Caspase activity in HeLa cells (Caspase-Glo); format: cell-based, human; details: 48 h
Protocol: Thus one aspect of the invention is the use of DNMDP for the treatment of lung adenocarcinoma and cervical cancer.
1000 HeLa cells were plated in 384-well plate in 40 μl of corresponding growth media supplemented with 10% Fetal Bovine Serum. 24 hours after plating, indicated compounds were added at indicated concentrations and incubated for 48 hours. Caspase-Glo from Promega was added according to the manufacturers recommendations and luminescence was determined as described in Compound library screening in NCI-H1734 and A549 cell lines.

Row | mean metabolic stability (Fmax) [1] | IC50 (A549) | IC50 (HeLa) | IC50 (SKMEL3) | EC50 (HeLa cells [2]; Homo sapiens) | IC50 (human full length PDE3A) | IC50 (PDE3B) | Tm (PDE3A(677-1141)) | SMILES | PDE3A and SLFN12 complex formation (PDE3A and SLFN12 complex) | selective toxicity in dose-response retest (in words) (NCI-H1734) | EC70 HeLa cell viability (HeLa cells [2]) | caspase activity (apoptosis) (HeLa cells [3])
1 | 93% | > 600 nM | 0.327 nM | 0.441 nM | 1.1 nM | 2.4 nM | 3.4 nM |  | C[C@@H]1CC(=O)NN=C1c1cc(F)c(N2CCOCC2)c(Cl)c1 [Compound 6, (5R)-6-[3-chloro-5-fluoro-4-(morpholin-4-yl)phenyl]-5-methyl-4,5-dihydropyridazin-3(2H)-one] |  |  |  | 
2 |  |  |  |  |  |  |  | 58.4 ± 0.0 °C | CCN(CC)c1ccc(C2=NNC(=O)CC2C)cc1[N+](=O)[O-] (stereo not drawn) [DNMDP, 6-(4-(diethylamino)-3-nitrophenyl)-5-methyl-4,5-dihydropyridazin-3(2H)-one] | induced PDE3A and SFLN12 complex formation | specifically toxic to the NCI-H1734 cell line | 30 nM | Caspase activity was detected
